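Five concentrations, 48 hours, 96-well plates. GI50 marks 50% less growth. TGI: total growth inhibition.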
Tests used:
Assay in all cases: DTP human tumour cell line panel, 48 h
UACC-62 melanoma = test system: UACC-62 melanoma
M14 melanoma = test system: M14 melanoma
ACHN renal = test system: ACHN renal
SW-620 colon = test system: SW-620 colon
SF-539 CNS = test system: SF-539 CNS
RPMI-8226 leukemia = test system: RPMI-8226 leukemia
TK-10 renal = test system: TK-10 renal
HCC-2998 colon = test system: HCC-2998 colon
NCI/ADR-RES ovarian = test system: NCI/ADR-RES ovarian
CCRF-CEM leukemia = test system: CCRF-CEM leukemia
SR leukemia = test system: SR leukemia
OVCAR-4 ovarian = test system: OVCAR-4 ovarian
LOX IMVI melanoma = test system: LOX IMVI melanoma
A498 renal = test system: A498 renal
BT-549 breast = test system: BT-549 breast
HL-60(TB) leukemia = test system: HL-60(TB) leukemia
EKVX NSCLC = test system: EKVX NSCLC
MALME-3M melanoma = test system: MALME-3M melanoma
T-47D breast = test system: T-47D breast

Row | Structure (SMILES) | TGI (UACC-62 melanoma) | TGI (M14 melanoma) | TGI (ACHN renal) | TGI (SW-620 colon) | TGI (SF-539 CNS) | TGI (RPMI-8226 leukemia) | TGI (TK-10 renal) | TGI (HCC-2998 colon) | TGI (NCI/ADR-RES ovarian) | TGI (CCRF-CEM leukemia) | TGI (SR leukemia) | TGI (OVCAR-4 ovarian) | TGI (LOX IMVI melanoma) | TGI (A498 renal) | GI50 (BT-549 breast) | TGI (BT-549 breast) | TGI (HL-60(TB) leukemia) | TGI (EKVX NSCLC) | TGI (MALME-3M melanoma) | TGI (T-47D breast)
1 | N#CN=C(N)c1sc2nc3c(c(-c4ccc(Br)cc4)c2c1N)CCCC3 | 51.3 µM | > 100 µM | 57 µM | > 100 µM | > 100 µM | 56.5 µM | > 100 µM | 60.3 µM | 80.1 µM | > 100 µM | 50.3 µM | 26.9 µM | 41.2 µM | 43.1 µM |  |  |  |  |  | 
2 | ClCCCN(CCCCl)c1ccc(C=Nc2cccc(Cl)c2)cc1 | 15.4 µM | > 76.3 µM | > 100 µM | > 100 µM | > 100 µM | 55 µM | 26.6 µM | > 100 µM | 52.5 µM | 65.2 µM |  | > 79.5 µM | > 100 µM |  | 71.2 µM | > 100 µM | 58.4 µM | > 100 µM | 44.3 µM | 44.8 µM
3 | CC(=N\N)/C(C)=N/N=C(C)/C(C)=N/N=C(C)/C(C)=N/N=C(C)/C(C)=N/N |  | > 100 µM |  | > 100 µM | > 100 µM | > 100 µM | > 100 µM | > 100 µM | > 100 µM | > 100 µM |  | > 100 µM | > 100 µM | > 100 µM |  | > 100 µM | > 100 µM | > 100 µM | > 100 µM | > 100 µM
4 | Cc1ccc(S(=O)(=O)N2CCCN(S(=O)(=O)c3ccc(C)cc3)CCN(S(=O)(=O)c3ccc(C)cc3)CCCSCC2)cc1 | > 100 µM | > 100 µM | > 100 µM | > 100 µM | > 100 µM | > 100 µM |  | > 100 µM | > 100 µM | > 100 µM |  | > 100 µM |  | > 100 µM |  | > 100 µM | > 100 µM | > 100 µM |  | > 100 µM
5 | O=C(OCc1ccccc1CN1CCOCC1)c1cccc(Br)c1 | > 100 µM | > 100 µM | > 100 µM | > 100 µM | > 100 µM |  |  | > 100 µM | 79.8 µM |  |  | 70 µM | > 100 µM | > 100 µM |  | > 100 µM |  | > 100 µM | 45 µM | 49.6 µM
6 | CN(C)CCOc1cccc2c1C(=O)c1ccccc1C2=O | 29.8 µM | 26.3 µM | > 100 µM | 43.7 µM | 22.6 µM |  | 66.6 µM | 30.3 µM |  | 64.9 µM |  | 20.4 µM | 18.6 µM | 33.3 µM |  |  | 29.4 µM | 34.6 µM | 26.5 µM | 
7 | CC1(C)[C@H](C(=O)O)N2C(=O)[C@@H](NS(=O)(=O)c3ccc([N+](=O)[O-])cc3)[C@H]2S1(=O)=O | > 100 µM | > 100 µM | > 100 µM | > 100 µM | > 100 µM |  | > 100 µM | > 100 µM | > 100 µM | > 100 µM |  | > 100 µM | > 100 µM | > 100 µM |  | > 100 µM | > 100 µM | > 100 µM | > 100 µM | > 100 µM
8 | CC(=O)OC12/C(=N/O)CCCCCC1c1ccccc12 (centres undefined) | > 100 µM |  | > 100 µM | > 100 µM |  | > 100 µM | > 100 µM |  |  | 92.3 µM | > 100 µM | > 100 µM | > 100 µM |  |  |  | > 100 µM | > 100 µM | > 100 µM | 
9 | CC(C)(C)c1cc(C(=O)Nc2cc(Br)c(Br)cc2S(N)(=O)=O)cc(C(C)(C)C)c1O | 23.1 µM | 35.9 µM | 23.4 µM | 21.4 µM | 32.7 µM | > 100 µM | 25.5 µM | 18.1 µM |  | 26.6 µM |  | 28.7 µM | 19.4 µM |  |  | 25.4 µM |  | 26.2 µM | 26.6 µM | 15.6 µM
10 | O=C1/C(=C/c2ccccc2)CCCC1CN1CCCCC1 (centres undefined) | 19.7 µM | 3.36 µM | 11.8 µM | 2.64 µM | 11.7 µM | > 100 µM | 8.02 µM | 29 µM | 13 µM |  |  | 3.83 µM | 3.3 µM | 30.4 µM |  | 8.91 µM |  | 28.8 µM | 3.97 µM | 3.92 µM
11 | O=C(/C=C1\N=C(c2ccccc2)N(c2nc3ccc(Sc4ccccc4)cc3[nH]2)C1=O)/C=C/c1ccccc1 | 85.2 µM | > 100 µM | > 100 µM | > 100 µM |  | 60.9 µM | 98.2 µM | 32.5 µM | 67.9 µM | > 100 µM |  | > 100 µM | > 100 µM | > 100 µM |  | > 100 µM | 54.1 µM | > 100 µM | > 100 µM | 82.6 µM
12 | CC(C)(C)OC(=O)NCCCCC(N)C(N)=O (centres undefined) | > 100 µM | > 100 µM | > 100 µM | > 100 µM | > 100 µM | > 100 µM | > 100 µM | > 100 µM | > 100 µM | > 100 µM |  | > 100 µM | > 100 µM | > 100 µM |  | > 100 µM |  | > 100 µM | > 100 µM | > 100 µM
13 | CC[C@@]1(N(C)C)C(=O)OCc2c1cc1n(c2=O)Cc2cc3ccccc3nc2-1 | 56.6 µM | > 100 µM | 42.2 µM | > 100 µM |  | > 100 µM | > 100 µM | > 100 µM | 51.9 µM | 96.3 µM |  | > 100 µM | 33.5 µM | > 100 µM |  | 39.5 µM |  | > 100 µM | 55.3 µM | 52.6 µM
14 | CC1=NCCN=C(C)C1N=Nc1ccc2nc(C)[nH]c2c1 | 31.5 µM | 16.8 µM | 32.1 µM | 33.4 µM | 42.5 µM | 17.4 µM | 42.9 µM | 41.1 µM | 47.9 µM | 16.8 µM |  | 30.6 µM | 98.8 µM | 18 µM |  | 28.2 µM | 9.33 µM | 39.6 µM | 41.5 µM | 47.5 µM

Reference: PubChem BioAssay (NCI)
